Laboratory results taken from ChEMBL document CHEMBL1201862, “PubChem BioAssay data set” (2004).
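Values below derive from 48-hour exposures of cells grown in 96-well plates, with endpoints linearly interpolated between the two concentrations bracketing the appropriate inhibition level. GI50: concentration for 50% inhibition of growth.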 Activity calls are given as the source filed them. Rule as the data show it: active = GI50 up to about 1.1 µM and inactive = higher.

What was measured:
Assay in all cases: NCI anticancer screen, dose series, 48 h
SN12C = tested on: SN12C
LOX IMVI = tested on: LOX IMVI
Hs-578T = tested on: Hs-578T
A498 = tested on: A498
IGROV-1 = tested on: IGROV-1
Malme-3M = tested on: Malme-3M
DU-145 = tested on: DU-145
MDA-N = tested on: MDA-N
HOP-62 = tested on: HOP-62
SK-OV-3 = tested on: SK-OV-3
HCT-116 = tested on: HCT-116
ACHN = tested on: ACHN
HCT-15 = tested on: HCT-15
SK-MEL-5 = tested on: SK-MEL-5
SR = tested on: SR
CAKI-1 = tested on: CAKI-1
COLO 205 = tested on: COLO 205
RPMI-8226 = tested on: RPMI-8226
UACC-257 = tested on: UACC-257

SMILES	GI50 (SN12C)	GI50 (LOX IMVI)	GI50 (Hs-578T)	GI50 (A498)	GI50 (IGROV-1)	GI50 (Malme-3M)	GI50 (DU-145)	GI50 (MDA-N)	GI50 (HOP-62)	GI50 (SK-OV-3)	GI50 (HCT-116)	GI50 (ACHN)	GI50 (HCT-15) [µM]	GI50 (SK-MEL-5)	GI50 (SR)	GI50 (CAKI-1)	GI50 (COLO 205)	GI50 (RPMI-8226)	GI50 (UACC-257)
OC(COC(c1ccccc1)(c1ccccc1)c1ccccc1)C(O)CC1SCCS1 (configuration not stated)	17.7 µM (inactive)	13.5 µM (inactive)	12.2 µM (inactive)	13.9 µM (inactive)	10.2 µM (inactive)	10 µM (inactive)	17.9 µM (inactive)	19 µM (inactive)	12 µM (inactive)	19 µM (inactive)	16.4 µM (inactive)	18.6 µM (inactive)	21.8	16.7 µM (inactive)	0.0275 µM (active)	21.3 µM (inactive)	14.7 µM (inactive)	5.22 µM (inactive)	27 µM (inactive)
CCOC(=O)/C(=C\c1c(C)[nH]c2ccccc12)P(=O)(OCC)OCC	> 100 µM (inactive)	> 100 µM (inactive)	> 100 µM (inactive)	> 100 µM (inactive)	> 100 µM (inactive)	> 100 µM (inactive)	> 100 µM (inactive)	> 100 µM (inactive)	> 100 µM (inactive)	> 100 µM (inactive)	> 100 µM (inactive)	> 100 µM (inactive)	> 100	> 100 µM (inactive)	> 100 µM (inactive)	> 100 µM (inactive)	> 100 µM (inactive)	> 100 µM (inactive)	> 100 µM (inactive)
Oc1nc(S)nc(SCc2c(Cl)c(Cl)c(Cl)c(Cl)c2Cl)n1	49.5 µM (inactive)	> 63.1 µM (inactive)	> 59.2 µM (inactive)	> 59.4 µM (inactive)	69 µM (inactive)	27.5 µM (inactive)	45.9 µM (inactive)	47.4 µM (inactive)	38.7 µM (inactive)	> 96.4 µM (inactive)	39.8 µM (inactive)	77.1 µM (inactive)	49	> 84.1 µM (inactive)	0.184 µM (active)	30.6 µM (inactive)	18.2 µM (inactive)	7.18 µM (inactive)	> 88.3 µM (inactive)
CCOC(=O)/C(=C/NC(=S)Nc1c(CC)cccc1C(C)(C)C)C(=O)c1ccccc1	> 100 µM (inactive)	> 100 µM (inactive)	13.2 µM (inactive)	> 100 µM (inactive)	> 100 µM (inactive)	> 100 µM (inactive)	> 100 µM (inactive)	> 100 µM (inactive)	> 100 µM (inactive)	> 100 µM (inactive)	> 100 µM (inactive)	> 100 µM (inactive)	> 100	> 100 µM (inactive)	> 100 µM (inactive)	> 100 µM (inactive)	> 100 µM (inactive)	88.9 µM (inactive)	> 100 µM (inactive)
CC1=C(C)C(=O)O[C@@H]([C@](C)(O)[C@]2(O)CC[C@@]3(O)[C@@H]4C[C@H](O)[C@]5(O)[C@@H](O)C=CC(=O)[C@]5(C)[C@H]4CC[C@]23C)C1	> 100 µM (inactive)	58.5 µM (inactive)	> 100 µM (inactive)	> 100 µM (inactive)	> 100 µM (inactive)	> 100 µM (inactive)	> 100 µM (inactive)	93.1 µM (inactive)	> 100 µM (inactive)	> 100 µM (inactive)	86.9 µM (inactive)	> 100 µM (inactive)	> 100	> 100 µM (inactive)	31.3 µM (inactive)	> 100 µM (inactive)	> 100 µM (inactive)	49.9 µM (inactive)	> 100 µM (inactive)
Cc1cc(C)nc(NS(=O)(=O)c2ccc(Nc3c4ccccc4nc4ccc(C(=O)Nc5ccc(S(=O)(=O)N=C(N)N)cc5)cc34)cc2)n1	97.7 µM (inactive)	17 µM (inactive)	> 100 µM (inactive)	> 100 µM (inactive)	> 100 µM (inactive)	30.7 µM (inactive)	> 100 µM (inactive)	> 100 µM (inactive)	> 100 µM (inactive)	> 100 µM (inactive)	70.1 µM (inactive)	> 100 µM (inactive)	33.3	97.3 µM (inactive)	44.6 µM (inactive)	> 100 µM (inactive)	> 100 µM (inactive)	35.7 µM (inactive)	72.3 µM (inactive)
CCOC(=O)C1=C(N)N2C(=N[C@H]3CCCC[C@@H]32)N=C1	> 100 µM (inactive)	> 100 µM (inactive)	> 100 µM (inactive)	> 100 µM (inactive)	> 100 µM (inactive)	> 100 µM (inactive)	> 100 µM (inactive)	> 100 µM (inactive)	–	> 100 µM (inactive)	> 100 µM (inactive)	> 100 µM (inactive)	> 100	> 100 µM (inactive)	> 100 µM (inactive)	> 100 µM (inactive)	> 100 µM (inactive)	> 100 µM (inactive)	> 100 µM (inactive)
COc1cc(/C=N\N(C)C)cc(/C=N/N(C)C)c1O	14.4 µM (inactive)	25.1 µM (inactive)	3.53 µM (inactive)	45.6 µM (inactive)	–	10.8 µM (inactive)	68.7 µM (inactive)	25.9 µM (inactive)	39.3 µM (inactive)	15.5 µM (inactive)	29.8 µM (inactive)	21.3 µM (inactive)	88.1	26.2 µM (inactive)	12.5 µM (inactive)	21.1 µM (inactive)	17.1 µM (inactive)	19.6 µM (inactive)	28.6 µM (inactive)
CN(C)c1ccc(/C=C/c2ccnc3ccccc23)cc1	64.9 µM (inactive)	53.3 µM (inactive)	14.5 µM (inactive)	> 100 µM (inactive)	> 100 µM (inactive)	53.2 µM (inactive)	47.9 µM (inactive)	17.7 µM (inactive)	> 100 µM (inactive)	54.5 µM (inactive)	39.8 µM (inactive)	40.3 µM (inactive)	61.1	75.9 µM (inactive)	30.5 µM (inactive)	> 100 µM (inactive)	28.8 µM (inactive)	51.1 µM (inactive)	> 100 µM (inactive)
CC(=O)OC(C)(C)/C=C/C(=O)[C@](C)(O)[C@H]1[C@H](O)C[C@@]2(C)[C@@H]3CC=C4[C@@H](C[C@H](O)C(=O)C4(C)C)[C@]3(C)C(=O)C[C@]12C	< 0.0143 µM (active)	< 0.01 µM (active)	< 0.01 µM (active)	< 0.01 µM (active)	< 0.01 µM (active)	< 0.01 µM (active)	< 0.01 µM (active)	< 0.01 µM (active)	< 0.0111 µM (active)	< 0.01 µM (active)	< 0.01 µM (active)	< 0.01 µM (active)	< 0.01	< 0.01 µM (active)	< 0.01 µM (active)	< 0.01 µM (active)	< 0.01 µM (active)	< 0.01 µM (active)	< 0.01 µM (active)
CCCOc1ccc(-c2nc(-c3ccc(/N=C/c4ccc(N(CCOS(C)(=O)=O)CCOS(C)(=O)=O)cc4C)cc3)cs2)cc1	16.8 µM (inactive)	14.9 µM (inactive)	29.3 µM (inactive)	7.5 µM (inactive)	20 µM (inactive)	44.4 µM (inactive)	3.16 µM (inactive)	28.7 µM (inactive)	8 µM (inactive)	5.93 µM (inactive)	29.4 µM (inactive)	1.46 µM (inactive)	23.4	27 µM (inactive)	3.85 µM (inactive)	1.3 µM (inactive)	2.21 µM (inactive)	61.1 µM (inactive)	38 µM (inactive)
CC(=O)OCC1=C2C(OC(=O)C(C)C)CC3(COC(C)=O)OC3/C=C\C3(C)OC3C2OC1=O (configuration not stated)	> 100 µM (inactive)	> 100 µM (inactive)	> 100 µM (inactive)	> 100 µM (inactive)	> 100 µM (inactive)	> 100 µM (inactive)	> 100 µM (inactive)	> 100 µM (inactive)	> 100 µM (inactive)	> 100 µM (inactive)	> 100 µM (inactive)	> 100 µM (inactive)	> 100	> 100 µM (inactive)	> 100 µM (inactive)	> 100 µM (inactive)	> 100 µM (inactive)	> 100 µM (inactive)	> 100 µM (inactive)
CN(C)CCOc1ccc2[nH]c(C(=O)N3CC(CCl)c4ccc(N)cc43)cc2c1 (configuration not stated)	0.108 µM (active)	0.0601 µM (active)	0.176 µM (active)	0.208 µM (active)	0.0395 µM (active)	0.164 µM (active)	0.0323 µM (active)	0.143 µM (active)	0.0356 µM (active)	1.94 µM (inactive)	0.0354 µM (active)	0.0281 µM (active)	0.102	0.0451 µM (active)	< 0.0179 µM (active)	0.0489 µM (active)	0.083 µM (active)	0.228 µM (active)	0.151 µM (active)
FC(F)(F)c1cccc(-c2nc3ccccc3c3c2[C@@]2(N4CCCC4)CCCC[C@@H]32)c1	40.4 µM (inactive)	18.1 µM (inactive)	43.6 µM (inactive)	31.2 µM (inactive)	12 µM (inactive)	32.9 µM (inactive)	51.5 µM (inactive)	32.2 µM (inactive)	32.3 µM (inactive)	36.9 µM (inactive)	35.6 µM (inactive)	–	–	15.8 µM (inactive)	40.9 µM (inactive)	50.9 µM (inactive)	15.5 µM (inactive)	17.5 µM (inactive)	44.9 µM (inactive)
